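Growth conditions: 96-well plates. Treatment: test compound, 48 hours, 5 concentrations. Analysis: linear interpolation between bracketing concentrations; unreached endpoints set to highest concentration. TGI marks complete inhibition of growth.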
Experiments:
Assay in all cases: NCI-60 cell line screen, 48 h
[1] = test system: OVCAR-4 ovarian
[2] = test system: NCI-H522 lung
[3] = test system: MDA-MB-231 breast
[4] = test system: LOX IMVI melanoma
[5] = test system: NCI-H23 lung
[6] = test system: UACC-62 melanoma
[7] = test system: HOP-62 NSCLC
[8] = test system: SK-MEL-2 melanoma
[9] = test system: SNB-75 CNS
[10] = test system: M14 melanoma

Compound | TGI [1] [µM] | TGI [2] [µM] | TGI [3] [µM] | TGI [4] [µM] | TGI [5] [µM] | TGI [6] [µM] | TGI [7] [µM] | TGI [8] [µM] | TGI [9] [µM] | TGI [10] [µM]
O=C1NC(N2CCOCC2)=N/C1=C\c1ccc(O)cc1 | > 100 | > 100 | > 100 | > 100 | > 100 | > 100 | > 100 | > 100 | > 100 | > 100
O=c1[nH]nc(Cc2ccc(Cl)cc2)n1/N=C/c1ccc([N+](=O)[O-])o1 | 15.9 | 4.18 | > 34.7 | > 24.8 | 16.8 | 9.09 | 24.8 | 12.4 | 31.1 | 5.68
Oc1ccc(-c2nc3ccccc3s2)cc1 | > 100 | 47.9 | 63.4 | 45 | 79.1 | > 100 | > 100 | 67.3 | > 100 | > 100
CC(C)(C)OC(=O)c1ccc(NCC2=C(Br)C(=O)C=CC2=O)cc1 | 33 | 13 | 47 | 31.4 | 50.6 | 36.1 | > 100 | > 71.1 | > 83.3 | 85.4
C#CCOC(=O)c1ccc(OC(C)=O)cc1 | > 100 | > 100 | > 100 | > 100 | > 100 | > 100 | > 100 | > 100 | > 100 | > 100
O=C(Nc1nn[nH]n1)c1nc(-c2ccccc2)cc(=O)[nH]1 | > 100 | > 100 | > 100 | > 100 | > 100 | > 100 | > 100 | > 100 | > 100 | > 100
CCOc1cc2c(cc1O)C(O)C[C@@H]1[C@@H]2CC[C@]2(C)[C@@H](O)CC[C@@H]12 (stereo not given in full) | > 100 | 0.95 | > 66 | > 100 | > 24.7 | > 100 | > 100 | > 100 | > 100 | > 100
C[C@H](C1CC2(C)OC2(C)C(=O)O1)[C@H]1CC[C@H]2[C@@H]3[C@@H]4O[C@@H]4[C@@]4(O)CC=CC(=O)[C@]4(C)[C@H]3CC[C@]12C (stereo not given in full) | > 50 | > 50 | > 50 | > 50 | > 50 | > 50 | > 50 | > 50 | 19.8 | > 50
Cc1nc(Nc2ccccc2Cl)sc1C(=O)CC(=O)C(N)=O | > 100 | 6.79 | > 100 | > 100 | > 100 | > 100 | > 100 | > 100 | 92.2 | > 100
COc1cc2nc(-c3cccs3)nc(Nc3cccc(Cl)c3)c2cc1OC | > 100 | > 100 | > 100 | > 100 | > 100 | > 100 | 45.3 | > 100 | > 100 | > 100
O=[Se](O)O | 21.1 | 39 | 3.05 | > 100 | > 94.4 | 4.66 | 1.95 | > 39.4 | 7.55 | 23.4
OC(NN=C1CCCC1)(C(F)(F)Cl)C(F)(F)Cl | > 10 | > 10 | > 10 | > 10 | > 10 | > 10 | > 10 | > 10 | > 10 | > 10
Cc1c2cccc-2ccc2c3ccccc3n(C(=O)c3ccc(Cl)cc3)c12 | > 100 | > 100 | > 100 | > 100 | > 100 | > 100 | > 100 | > 100 | > 100 | > 100
CCNc1cc2c3c(c1)CCN3CCC2 | > 10 | > 10 | > 10 | > 10 | > 10 | > 10 | > 10 | > 10 | > 10 | > 10
CC1(C)CC[C@]2(C(=O)O)CC[C@]3(C)[C@H](C(=O)C=C4[C@@]5(C)C=C(C#N)C(=O)C(C)(C)[C@@H]5CC[C@]43C)[C@@H]2C1 | 23.2 | 5.48 | 7.34 | 1.1 | 0.628 | 4.43 | 3.28 | 3.88 | 2.84 | 4.32
